Measured values reported in ChEMBL document CHEMBL4316596, “Antimicrobial Peptides with High Proteolytic Resistance for Combating Gram-Negative Bacteria” (J Med Chem, 2019).
In brackets after ≈: the same amount, converted by molar mass. Activity calls are given as the source filed them. No cut-off for these calls is given here.

Legend:
[1] = system: Escherichia coli; experiment: Bactericidal activity against Escherichia coli ATCC 25922 incubated for 4 hrs followed by culture spread on agar plates and cultured overnight in presence of 1 mg/ml chymotrypsin; type: functional; settings: ATCC 25922, 4 h, read-out: MBC>99.9
[2] = system: Acinetobacter baumannii; experiment: Antimicrobial activity against Acinetobacter baumannii after 24 hrs by NCCLS-protocol based assay; type: functional
[3] = system: Escherichia coli; experiment: Bactericidal activity against Escherichia coli ATCC 25922 incubated for 4 hrs followed by culture spread on agar plates and cultured overnight in presence of MgCl2; type: functional; settings: ATCC 25922, 4 h, read-out: MBC>99.9
[4] = Selectivity ratio of HC10 for human RBC to geometric mean of the peptide MBC for bacteria
[5] = Selectivity ratio of IC50 for mouse RAW264.7 cells to geometric mean of the peptide MBC for bacteria
[6] = system: Pseudomonas aeruginosa; experiment: Bactericidal activity against Pseudomonas aeruginosa CICC 21630 clinical isolates incubated for 4 hrs followed by culture spread on agar plates and cultured overnight; type: functional; settings: CICC 21630, 4 h, read-out: MBC>99.9
[7] = system: Escherichia coli; experiment: Bactericidal activity against Escherichia coli ATCC 25922 incubated for 4 hrs followed by culture spread on agar plates and cultured overnight in presence of 0.25 mg/ml trypsin; type: functional; settings: ATCC 25922, 4 h, read-out: MBC>99.9
[8] = system: HEK-293T; experiment: Cytotoxicity against HEK293T cells assessed as cell death after 18 to 24 hrs by MTT assay; type: cell-based; settings: Homo sapiens
[9] = system: Escherichia coli; experiment: Bactericidal activity against Escherichia coli ATCC 25922 incubated for 4 hrs followed by culture spread on agar plates and cultured overnight in presence of 25% serum albumin; type: functional; settings: ATCC 25922, 4 h, read-out: MBC>99.9
[10] = system: Salmonella typhimurium; experiment: Antimicrobial activity against Salmonella typhimurium ATCC 14028 after 24 hrs by NCCLS-protocol based assay; type: functional, Salmonella enterica subsp. enterica serovar Typhimurium; settings: Salmonella enterica, ATCC 14028, 24 h
[11] = system: Pseudomonas aeruginosa; experiment: Antimicrobial activity against Pseudomonas aeruginosa ATCC 27853 after 24 hrs by NCCLS-protocol based assay; type: functional; settings: ATCC 27853, 24 h
[12] = system: Klebsiella pneumoniae; experiment: Antimicrobial activity against Klebsiella pneumoniae after 24 hrs by NCCLS-protocol based assay; type: functional
[13] = system: Escherichia coli; experiment: Bactericidal activity against Escherichia coli ATCC 25922 incubated for 4 hrs followed by culture spread on agar plates and cultured overnight in presence of 0.5 mg/ml trypsin; type: functional; settings: ATCC 25922, 4 h, read-out: MBC>99.9
[14] = system: Escherichia coli; experiment: Bactericidal activity against Escherichia coli ATCC 25922 incubated for 4 hrs followed by culture spread on agar plates and cultured overnight in presence of 0.5 mg/ml chymotrypsin; type: functional; settings: ATCC 25922, 4 h, read-out: MBC>99.9
[15] = system: Escherichia coli; experiment: Bactericidal activity against Escherichia coli ATCC 25922 incubated for 4 hrs followed by culture spread on agar plates and cultured overnight in presence of 0.125 mg/ml trypsin; type: functional; settings: ATCC 25922, 4 h, read-out: MBC>99.9
[16] = system: Escherichia coli; experiment: Bactericidal activity against Escherichia coli ATCC 25922 incubated for 4 hrs followed by culture spread on agar plates and cultured overnight in presence of 1 mg/ml trypsin; type: functional; settings: ATCC 25922, 4 h, read-out: MBC>99.9
[17] = system: Escherichia coli; experiment: Antimicrobial activity against Escherichia coli UB1005 after 24 hrs by NCCLS-protocol based assay; type: functional; settings: UB1005, 24 h
[18] = system: Escherichia coli; experiment: Bactericidal activity against Escherichia coli K99 incubated for 4 hrs followed by culture spread on agar plates and cultured overnight; type: functional; settings: K99, 4 h, read-out: MBC>99.9
[19] = system: Escherichia coli; experiment: Bactericidal activity against Escherichia coli ATCC 25922 incubated for 4 hrs followed by culture spread on agar plates and cultured overnight; type: functional; settings: ATCC 25922, 4 h, read-out: MBC>99.9
[20] = system: Pseudomonas aeruginosa; experiment: Bactericidal activity against Pseudomonas aeruginosa ATCC 27853 incubated for 4 hrs followed by culture spread on agar plates and cultured overnight; type: functional; settings: ATCC 27853, 4 h, read-out: MBC>99.9
[21] = system: Escherichia coli; experiment: Bactericidal activity against Escherichia coli ATCC 25922 incubated for 4 hrs followed by culture spread on agar plates and cultured overnight in presence of 2 mg/ml trypsin; type: functional; settings: ATCC 25922, 4 h, read-out: MBC>99.9
[22] = system: Escherichia coli; experiment: Bactericidal activity against Escherichia coli ATCC 25922 incubated for 4 hrs followed by culture spread on agar plates and cultured overnight in presence of FeCl3; type: functional; settings: ATCC 25922, 4 h, read-out: MBC>99.9
[23] = system: Escherichia coli; experiment: Bactericidal activity against Escherichia coli ATCC 25922 incubated for 4 hrs followed by culture spread on agar plates and cultured overnight in presence of 2 mg/ml chymotrypsin; type: functional; settings: ATCC 25922, 4 h, read-out: MBC>99.9
[24] = Selectivity ratio of IC50 for HEK293T cells to geometric mean of the peptide MBC for bacteria
[25] = Bactericidal activity against Salmonella pullorum C7913 incubated for 4 hrs followed by culture spread on agar plates and cultured overnight; type: functional, Salmonella enterica subsp. enterica serovar Pullorum; settings: Salmonella enterica, C7913, 4 h; read-out: MBC>99.9
[26] = system: Escherichia coli; experiment: Bactericidal activity against Escherichia coli ATCC 25922 incubated for 4 hrs followed by culture spread on agar plates and cultured overnight in presence of 0.125 mg/ml chymotrypsin; type: functional; settings: ATCC 25922, 4 h, read-out: MBC>99.9
[27] = system: Escherichia coli; experiment: Bactericidal activity against Escherichia coli ATCC 25922 incubated for 4 hrs followed by culture spread on agar plates and cultured overnight in presence of ZnCl2; type: functional; settings: ATCC 25922, 4 h, read-out: MBC>99.9
[28] = system: Pseudomonas aeruginosa; experiment: Antimicrobial activity against Pseudomonas aeruginosa 26305 clinical isolates after 24 hrs by NCCLS-protocol based assay; type: functional; settings: Pseudomonas aeruginosa, 26305, 24 h
[29] = system: Escherichia coli; experiment: Bactericidal activity against Escherichia coli ATCC 25922 incubated for 4 hrs followed by culture spread on agar plates and cultured overnight in presence of NH4Cl; type: functional; settings: ATCC 25922, 4 h, read-out: MBC>99.9
[30] = system: Escherichia coli; experiment: Bactericidal activity against Escherichia coli ATCC 25922 incubated for 4 hrs followed by culture spread on agar plates and cultured overnight in presence of 4 mg/ml chymotrypsin; type: functional; settings: ATCC 25922, 4 h, read-out: MBC>99.9
[31] = system: Escherichia coli; experiment: Bactericidal activity against Escherichia coli ATCC 25922 incubated for 4 hrs followed by culture spread on agar plates and cultured overnight in presence of NaCl; type: functional; settings: ATCC 25922, 4 h, read-out: MBC>99.9
[32] = system: Pseudomonas aeruginosa; experiment: Bactericidal activity against Pseudomonas aeruginosa 26305 clinical isolates incubated for 4 hrs followed by culture spread on agar plates and cultured overnight; type: functional; settings: Pseudomonas aeruginosa, 26305, 4 h; read-out: MBC>99.9
[33] = system: Pseudomonas aeruginosa; experiment: Antimicrobial activity against Pseudomonas aeruginosa CICC 21625 clinical isolates after 24 hrs by NCCLS-protocol based assay; type: functional; settings: CICC 21625, 24 h
[34] = system: Escherichia coli; experiment: Bactericidal activity against Escherichia coli ATCC 25922 incubated for 4 hrs followed by culture spread on agar plates and cultured overnight in presence of 0.25 mg/ml chymotrypsin; type: functional; settings: ATCC 25922, 4 h, read-out: MBC>99.9
[35] = system: Escherichia coli; experiment: Bactericidal activity against Escherichia coli ATCC 25922 incubated for 4 hrs followed by culture spread on agar plates and cultured overnight in presence of KCl; type: functional; settings: ATCC 25922, 4 h, read-out: MBC>99.9
[36] = system: Escherichia coli; experiment: Bactericidal activity against Escherichia coli ATCC 25922 incubated for 4 hrs followed by culture spread on agar plates and cultured overnight in presence of 4 mg/ml pepsin; type: functional, organism-based
[37] = system: Escherichia coli; experiment: Antibacterial activity against Escherichia coli ATCC 25922 infected in ICR mouse assessed as log reduction in bacterial cells in spleen at 5 mg/kg, ip administered at 5 mg/kg, ip dosed at 0.5, 2, 4 and 8 hrs post-infection; type: functional
[38] = system: Escherichia coli; experiment: Antibacterial activity against Escherichia coli ATCC 25922 infected in ICR mouse assessed as mouse survival at 5 mg/kg, ip dosed at 0.5, 2, 4 and 8 hrs post-infection; type: functional; settings: ATCC 25922, ip
[39] = system: Escherichia coli; experiment: Antibacterial activity against Escherichia coli ATCC 25922 infected in ICR mouse assessed as log reduction in bacterial cells in peritoneal cavity at 5 mg/kg, ip administered at 5 mg/kg, ip dosed at 0.5, 2, 4 and 8 hrs post-infection; type: functional

Compound	MBC [1]	MIC95 [2]	MBC [3]	Ratio [4]	Ratio [5]	MBC [6]	MBC [7]	IC50 [8]	MBC [9]	MIC95 [10]	MIC95 [11]	MIC95 [12]	MBC [13]	MBC [14]	MBC [15]	MBC [16]	MIC95 [17]	MBC [18]	MBC [19]	MBC [20]	also measured
CC[C@H](C)[C@H](NC(=O)CN)C(=O)NCC(=O)N[C@@H](C)C(=O)N[C@H](C(=O)N[C@@H](CC(C)C)C(=O)N[C@@H](CCCCN)C(=O)N[C@H](C(=O)N[C@@H](CC(C)C)C(=O)N[C@H](C(=O)N[C@H](C(=O)NCC(=O)N[C@@H](CC(C)C)C(=O)N1CCC[C@H]1C(=O)N[C@@H](C)C(=O)N[C@@H](CC(C)C)C(=O)N[C@H](C(=O)N[C@@H](CO)C(=O)N[C@@H](Cc1c[nH]c2ccccc12)C(=O)N[C@H](C(=O)N[C@@H](CCCCN)C(=O)N[C@@H](CCCNC(=N)N)C(=O)N[C@@H](CCCCN)C(=O)N[C@@H](CCCNC(=N)N)C(=O)N[C@@H](CCC(N)=O)C(=O)N[C@@H](CCC(N)=O)C(N)=O)[C@@H](C)CC)[C@@H](C)CC)[C@@H](C)O)[C@@H](C)O)C(C)C)C(C)C [MELITTIN]	> 64 µM	1 µM (≈ 2.85 µg/mL)	4 µM	0.92	0.96	4 µM (≈ 11.4 µg/mL)	2 µM	2.48 µM	64 µM	1 µM (≈ 2.85 µg/mL)	2 µM (≈ 5.69 µg/mL)	2 µM (≈ 5.69 µg/mL)	4 µM	> 64 µM	2 µM	16 µM	2 µM (≈ 5.69 µg/mL)	2 µM (≈ 5.69 µg/mL)	2 µM (≈ 5.69 µg/mL)	4 µM (≈ 11.4 µg/mL)	MBC [21]: > 64 µM; MBC [22]: 2 µM; MBC [23]: > 64 µM; Ratio [24]: 1.14; MBC [25]: 4 µM (≈ 11.4 µg/mL); MBC [26]: 2 µM; MBC [27]: 2 µM; MIC95 [28]: 2 µM (≈ 5.69 µg/mL); MBC [29]: 2 µM; MBC [30]: > 64 µM; MBC [31]: 4 µM; MBC [32]: 2 µM (≈ 5.69 µg/mL); MIC95 [33]: 4 µM (≈ 11.4 µg/mL); MBC [34]: 4 µM; MBC [35]: 2 µM
H-LKPLLKPLLKPLLKPLLKPLLKPLLKPL-NH2	1 µM	1 µM	2 µM	94.5	0.58	8 µM	1 µM	47.4 µM	8 µM	1 µM	2 µM	1 µM	1 µM	1 µM	1 µM	1 µM	1 µM	2 µM	1 µM	2 µM	Activity [36]: inactive; MBC [21]: 1 µM; MBC [22]: 2 µM; MBC [23]: 1 µM; Ratio [24]: 17.49; MBC [25]: 4 µM; MBC [26]: 1 µM; MBC [27]: 1 µM; MIC95 [28]: 4 µM; log(activity) [37]: 1; MBC [29]: 1 µM; MBC [30]: > 64 µM; survival at 5 mg/kg [38]: 37.5%; MBC [31]: 8 µM; MBC [32]: 16 µM; MIC95 [33]: 8 µM; MBC [34]: 1 µM; log(activity) [39]: 1; MBC [35]: 1 µM
